Assay results from patent publication US20260256786A1 (United Therapeutics Corporation, priority 2020, published 2026).
Like-named read-outs stand apart in the source and are kept apart here.

Assays:
[1] = Pharmacokinetics of insufflated ImaT powder in rat: lung sections; format: in vivo, Sprague Dawley rats; details: for concentration at 0.08 h / concentration at 1 h / concentration at 4 h / concentration at 8 h: male, Sprague Dawley, rat, lung, inhaled, 4 mg/kg
Procedure: Lungs were also harvested at specified time points (see Table 4). […] Lungs werethen harvested. The left lobe was sectioned into three parts; upper, middle and bottom. Each section was separated into two equal pieces. Each piece was weighed and individually placed in a properly labeled tube. Lungs samples were snap-frozen and stored at −80° C. Lung samples were then homogenized in PBS, 0.1% Triton X-100 (200 mg of tissue/mL). The homogenate samples were stored at −80° C.

[2] = ImaT 4 mg/kg insufflation, 24 h time point
Procedure: After dosing, blood samples and lungs were collected at specific time points over a period of 24 hours.
The rats were anesthetized with a mixture of 1.5 to 3% isoflurane USP (Abbott Laboratories, Montreal Canada) in 100% oxygen, and placed on a homoeothermic heating pad to maintain body temperature at 37±1° C.
For all groups, the test article was insufflated using an automated insufflation device. The insufflator tip was inserted just above the bifurcation of the trachea and the discharge of powder was timed to the inhalation cycle of the animal. After dosing, the animals were allowed to recover from anesthesia under surveillance before being returned to their respective cages.
Blood samples of 0.5 mL were collected from the jugular vein at specified time points (see Table 4).
Blood samples were centrifuged (3000 r.p.m. for 10 min., 2-8° C.) and plasma was transferred into an Eppendorf tube labeled with the Study Number, animal I.D., dose group and time point.
For each group, data in this report is expressed as mean±S.E.M.

[3] = section 1 (homogenate), read-out: Lung conc, Section 1
[4] = section 2 (homogenate), read-out: Lung conc, Section 2
[5] = section 3 (homogenate), read-out: Lung conc, Section 3
[6] = section 4 (homogenate), read-out: Lung conc, Section 4
[7] = section 5 (homogenate), read-out: Lung conc, Section 5
[8] = section 6 (homogenate), read-out: Lung conc, Section 6

Imatinib concentrations in the lung ([1]; ImaT 4 mg/kg insufflation, 24 hour time point): below the limit of detection
concentration at 0.08 h [1, 3]: 201 ng/mL
concentration at 1 h [1, 3]: 260 ng/mL
concentration at 4 h [1, 3]: 62 ng/mL
concentration at 8 h [1, 3]: 27.2 ng/mL
concentration at 0.08 h [1, 4]: 1530 ng/mL
concentration at 1 h [1, 4]: 638 ng/mL
concentration at 4 h [1, 4]: 51 ng/mL
concentration at 8 h [1, 4]: 24.4 ng/mL
concentration at 0.08 h [1, 5]: 888 ng/mL
concentration at 1 h [1, 5]: 307 ng/mL
concentration at 4 h [1, 5]: 55.9 ng/mL
concentration at 8 h [1, 5]: 21.1 ng/mL
concentration at 0.08 h [1, 6]: 3000 ng/mL
concentration at 1 h [1, 6]: 510 ng/mL
concentration at 4 h [1, 6]: 68.4 ng/mL
concentration at 8 h [1, 6]: 24.6 ng/mL
concentration at 0.08 h [1, 7]: 2580 ng/mL
concentration at 1 h [1, 7]: 196 ng/mL
concentration at 4 h [1, 7]: 69.5 ng/mL
concentration at 8 h [1, 7]: 22.1 ng/mL
concentration at 0.08 h [1, 8]: 4740 ng/mL
concentration at 1 h [1, 8]: 314 ng/mL
concentration at 4 h [1, 8]: 66.3 ng/mL
concentration at 8 h [1, 8]: 24.6 ng/mL
Time of maximal lung concentration of Imatinib ([1]; post-inhalation of ImaT): 5 min
Plasma concentration of Imatinib [2]: below the limit of detection
Structure (SMILES): Cc1ccc(NC(=O)c2ccc(CN3CCN(C)CC3)cc2)cc1Nc1nccc(-c2cccnc2)n1 [Imatinib, 4-[(4-methylpiperazin-1-yl)methyl]-N-[4-methyl-3-[(4-pyridin-3-ylpyrimidin-2-yl)amino]phenyl]benzamide]
